Results: patent publication US20110028447A1, “INDAZOLE DERIVATIVES” (Pfizer Inc., priority 2008, published 2011)
Where two headings read alike, the source gives them in different places.

Columns and labels:
human CB1 receptor [1] = biological target: T1, human CB1 receptor (Homo sapiens, UniProt P21554); assay: [35S] GTPγS binding on membranes of CHO cells expressing the human CB1 receptor (agonism); format: biochemical; set-up: expressed in transfected cells; membrane preparation
Method: Membrane preparation: CHO cells expressing the human CB1 receptor were grown to 80% confluence in Ham's F-12 Nutrient Medium (Invitrogen) containing 10% fetal bovine serum (Invitrogen), 1% pen/strep (Invitogen), 1% Nonessential amino acids (Invitrogen) and 500 μg/ml G418 (Invitrogen). Cells were released from flasks using Cell Dissociation Buffer (Invitrogen). Cells were pelleted by centrifugation at 500×G for 5 minutes. Membranes were prepared by resuspending cells in ice cold Assay Buffer (25 mM Tris pH 7.4, 5 mM EDTA, 5 mM EGTA, Complete Protease Inhibitor (Roche)). Cells were lysed with 12 strokes of a dounce homogenizer. Unlysed cells were pelleted by centrifugation at 500×G for 5 minutes. Membranes were pelleted by centrifugation at 25,000×G for 30 minutes. Membranes were resuspended in TEE, dounced 12 strokes, and pelleted a second time at 25,000×G for 30 minutes. Membrane pellet was resuspended in 50 mM Tris pH 7.4, 100 mM NaCl, 3 mM MgCl2, 0.2 mM EGTA, Complete Protease Inhibitor (Roche). Protein concentration was determined using the Micro-BCA Protein Assay Kit (Pierce) using BSA as a standard. Membranes were frozen and stored at −80 degrees Celsius until use.
GTPγS Binding: 40 μl of test compound was incubated with 20 μl of [^35S] GTPγS (Perkin Elmer) (1250 Ci/millimole) and 140 μl of membrane homogenate (5 μg/well) in polypropylene 96-well plates (Corning). Final reaction conditions were 50 mM Tris pH 7.4, 100 mM NaCl, 3 mM MgCl2, 0.2 mM EGTA, 0.04% BSA. After incubation at 37 degrees Celsius for 45 minutes reactions were harvested by vacuum filtration through Unifilter GF/B-96 filters (Perkin Elmer) using a FilterMate Plate Harvester (Perkin Elmer). Filters were rinsed 4 times with ice cold 50 mM Tris pH 7.4, 3 mM MgCl2, 0.2 mM EGTA and dried at 50 degrees Celsius for at least 30 minutes. 40 μl of Microscint-20 (Perkin Elmer) was added per well, and plates were counted using a Top-Count Microplate Scintillation Counter (Perkin Elmer). Binding data were analyzed and EC50 values were calculated using Graph Pad Prism 4.0 Software.

human CB1 receptor [2] = biological target: T1, human CB1 receptor; assay: Human CB1 receptor binding, [3H] CP-55,940 displacement on HEK cell membranes; set-up: expressed in transfected cells; host or cells: HEK cells, doxycycline-induced; membrane preparation
Outline: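 Radioligand displacement: [3H] CP-55,940 at […] final, 1 μg membrane protein per well from HEK cells with tetracycline-inducible human CB1, 60 min at room temperature, pH 7.4 Tris/NaCl/MgCl2/EGTA/BSA buffer. 50 μM WIN-55,212-2 set nonspecific binding; bound label filtered, counted, and fitted for EC50 and Ki values.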

[3] = GTPγS EC50, human CB1, CHO cell membranes
[4] = human CB1, CHO cell membranes, read-out: GTPγS EC50

T1 sequence (P21554 whole entry): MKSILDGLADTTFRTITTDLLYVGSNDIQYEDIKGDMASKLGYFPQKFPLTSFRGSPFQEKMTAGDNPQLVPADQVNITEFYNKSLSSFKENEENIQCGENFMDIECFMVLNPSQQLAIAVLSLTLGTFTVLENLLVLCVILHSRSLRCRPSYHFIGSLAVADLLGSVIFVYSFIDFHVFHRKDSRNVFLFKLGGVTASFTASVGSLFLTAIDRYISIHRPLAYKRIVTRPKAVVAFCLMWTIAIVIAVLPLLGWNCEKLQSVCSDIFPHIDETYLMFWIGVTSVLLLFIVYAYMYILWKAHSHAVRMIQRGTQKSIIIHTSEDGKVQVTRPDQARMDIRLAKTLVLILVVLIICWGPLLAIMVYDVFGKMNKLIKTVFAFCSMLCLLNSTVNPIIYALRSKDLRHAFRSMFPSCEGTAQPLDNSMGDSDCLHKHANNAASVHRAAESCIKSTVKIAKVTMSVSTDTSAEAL

Row | Compound | EC50 (human CB1 receptor [1]; [3]) | Ki (human CB1 receptor [2]; CB1 Ki) | EC50 (human CB1 receptor [1]; [4]) | Ki (human CB1 receptor [2]; read-out: CB1 Ki)
1 | Cc1cc2c(C(=O)N[C@H](C(=O)NCCO)C(C)(C)C)nn(Cc3ccc(F)cc3)c2cc1F [Example 511] | 6.7 nM | 0.68 nM |  | 
2 | CC(C)(C)[C@H](NC(=O)c1nn(Cc2ccc(F)cc2)c2ccccc12)C(=O)N1C[C@@H](O)[C@@H](O)C1 [Example 284] | 12.3 nM | 1.03 nM |  | 
3 | CC(C)(C)[C@H](NC(=O)c1nn(Cc2ccc(C#N)cc2)c2ccccc12)C(=O)N[C@H]1C[C@H](O)C1 [Example 354] | > 500 nM | 11.7 nM |  | 
4 | CC(C)(C)[C@H](NC(=O)c1nn(Cc2ccc(F)cc2)c2ccc(Cl)cc12)C(=O)NC1CCC1 [Example 438] | 20 nM | 10.9 nM |  | 
5 | CC(C)(C)[C@H](NC(=O)c1nn(Cc2ccc(F)cc2)c2ccccc12)C(=O)NCCN1CCCC1=O [Example 499] |  |  | 204 nM | 18.3 nM
6 | CC(C)(C)[C@H](NC(=O)c1nn(Cc2ccc(F)cc2)c2ccccc12)C(=O)NCc1nn[nH]n1 [Example 218] | 360 nM | 7.92 nM |  | 
7 | CC(C)(C)[C@H](NC(=O)c1nn(Cc2ccc(F)c(F)c2)c2ccccc12)C(=O)NCCC(N)=O [Example 473] | 41.8 nM | 17 nM |  | 
8 | CC(C)(C)[C@H](NC(=O)c1nn(Cc2ccc(F)cc2)c2ccccc12)C(=O)N1CCCC(F)(F)C1 [Example 333] | 3.75 nM | 1.49 nM |  | 
9 | CC(C)(C)[C@H](NC(=O)c1nn(Cc2ccc(F)cc2)c2ccccc12)C(=O)NC[C@@H](O)[C@H](O)CO [Example 516] | 44.6 nM | 4.28 nM |  | 
10 | CC(C)(C)[C@H](NC(=O)c1nn(Cc2ccc(C#N)cc2)c2c(F)cccc12)C(=O)NC[C@H](O)CO [Example 113] | 188 nM | 7.79 nM |  | 
11 | CC(C)(C)[C@H](NC(=O)c1nn(Cc2ccc(F)cc2)c2c(F)c(F)ccc12)C(=O)NCC(N)=O [Example 321] | 16.6 nM | 1.58 nM |  | 
12 | CC(C)NC(=O)OC1CCN(C(=O)[C@@H](NC(=O)c2nn(Cc3ccc(F)cc3)c3ccccc23)C(C)(C)C)CC1 [Example 302] |  |  | 33.1 nM | 5.41 nM
13 | CC(C)(C)C(NC(=O)c1nn(Cc2ccccc2)c2ccccc12)C(N)=O (centres unmarked) [Example 27] | 14.7 nM | 0.33 nM |  | 
14 | CC(C)(C)[C@H](NC(=O)c1nn(Cc2ccc(F)cc2F)c2ccccc12)C(=O)NCCC(N)=O [Example 472] | 52.7 nM | 19.6 nM |  | 
15 | CC(C)(C)[C@H](NC(=O)c1nn(Cc2ccc(C#N)cc2)c2c(F)cccc12)C(=O)N[C@@H]1CCc2ccccc21 [Example 286] |  |  | 36.1 nM | 5.74 nM
16 | CC(C)(C)[C@H](NC(=O)c1nn(Cc2ccc(F)cc2)c2ccccc12)C(=O)Nc1cnoc1 [Example 513] | 13.7 nM | 2.3 nM |  | 
17 | CC(C)(C)[C@H](NC(=O)c1nn(Cc2ccc(F)cc2)c2ccccc12)C(=O)NCc1cnn2cccnc12 [Example 417] |  |  | 25.7 nM | 7.84 nM
18 | CC(C)(C)[C@H](NC(=O)c1nn(Cc2ccc(C#N)cc2)c2c(F)cccc12)C(=O)NC[C@H]1C[C@H]1CO [Example 490] | 63.1 nM | 12.4 nM |  | 
19 | CC(C)(C)[C@H](NC(=O)c1nn(Cc2ccccn2)c2ccccc12)C(N)=O [Example 6, N-[(1S)-1-(aminocarbonyl)-2,2-dimethylpropyl]-1-(pyridin-2-ylmethyl)-1H-indazole-3-carboxamide] | 160 nM | 12.6 nM |  | 
20 | CC(C)(C)[C@H](NC(=O)c1nn(Cc2ccc(F)cc2)c2ccccc12)C(=O)NCC(=O)NC1CC1 [Example 494] | 1.17 nM | 0.34 nM |  | 
21 | COC(=O)[C@@H](O)CNC(=O)[C@@H](NC(=O)c1nn(Cc2ccc(F)cc2)c2ccccc12)C(C)(C)C [Example 238] | 25.7 nM | 6.46 nM |  | 
22 | CC(C)(C)C(NC(=O)c1nn(Cc2ccc(F)cc2)c2ccc(F)cc12)C(=O)NCC(N)=O (centres unmarked) [Example 173] | 5.12 nM | 2.37 nM |  | 
23 | CC(C)(C)[C@H](NC(=O)c1nn(Cc2ccc(C#N)cc2)c2c(F)cccc12)c1nnc(N)o1 [Example 112] |  |  | 31.8 nM | 0.51 nM

Row | Compound | EC50 (human CB1 receptor [1]; [3]) | Ki (human CB1 receptor [2]; CB1 Ki) | EC50 (human CB1 receptor [1]; [4]) | Ki (human CB1 receptor [2]; read-out: CB1 Ki)
24 | CC(C)(C)[C@H](NC(=O)c1nn(Cc2ccc(F)cc2)c2ccccc12)C(=O)N1CCN(S(=O)(=O)C2CC2)CC1 [Example 245] |  |  | 12.4 nM | 2.61 nM
25 | CC(C)(C)[C@H](NC(=O)c1nn(Cc2ccc(F)cc2)c2ccccc12)C(=O)NCC(=O)Nc1ccccn1 [Example 520] |  |  | 10.1 nM | 1.88 nM
26 | CC(C)(C)[C@H](NC(=O)c1nn(Cc2ccc(F)cc2)c2ccccc12)C(=O)N[C@@H]1CC[C@@H](O)C1 [Example 289] | 35.8 nM | 5.13 nM |  | 
27 | CC(C)(C)[C@H](NC(=O)c1nn(Cc2ccc(F)cc2)c2ccccc12)C(=O)N1CCC(F)(CO)CC1 [Example 337] |  |  | 21.1 nM | 3.48 nM
28 | CC(C)(C)C(NC(=O)c1nn(Cc2ccc(F)cc2)c2c(F)cccc12)C(=O)NCCO (centres unmarked) [Example 177] | 0.31 nM | 0.28 nM |  | 
29 | CC(C)(C)[C@H](NC(=O)c1nn(Cc2ccc(F)cc2)c2ccccc12)C(N)=O [Example 1, N-[(1S)-1-(Aminocarbonyl)-2,2-dimethylpropyl]-1-(4-fluorobenzyl)-1H-indazole-3-carboxamide] | 0.98 nM | 0.36 nM |  | 
30 | CC(C)(C)C(NC(=O)c1nn(Cc2ccc(C#N)cc2)c2c(Cl)cccc12)C(=O)NC1CC1 (centres unmarked) [Example 198] | 7.07 nM | 1.19 nM |  | 
31 | CC(C)(C)[C@H](NC(=O)c1nn(Cc2ccc(F)cc2)c2ccccc12)C(=O)N[C@@H]1CNC(=O)C1 [Example 459] | 17.7 nM | 2.78 nM |  | 
32 | CC(C)(C)C(NC(=O)c1nn(Cc2ccc(C#N)cc2F)c2ccccc12)C(=O)NCCNC(N)=O (centres unmarked) [Example 94] | 77 nM | 27.5 nM |  | 
33 | CC(C)(C)[C@H](NC(=O)c1nn(Cc2ccc(F)cc2)c2ccccc12)C(=O)N1CCC(F)CC1 [Example 341] | 13.9 nM | 3.74 nM |  | 
34 | Cc1nnc(CNC(=O)[C@@H](NC(=O)c2nn(Cc3ccc(F)cc3)c3ccccc23)C(C)(C)C)o1 [Example 126] | 2.55 nM | 0.97 nM |  | 
35 | CC(C)(C)[C@H](NC(=O)c1nn(Cc2ccc(C(F)(F)F)cc2)c2ccccc12)C(=O)NCCO [Example 255] | 130 nM | 13.1 nM |  | 
36 | CN1CC(CNC(=O)[C@@H](NC(=O)c2nn(Cc3ccc(F)cc3)c3ccccc23)C(C)(C)C)CC1=O (some centres unmarked) [Example 411] |  |  | 21.3 nM | 3.73 nM
37 | CC(C)(C)C(NC(=O)c1nn(Cc2ccc(F)cc2)c2ccc(F)cc12)C(=O)NC1CC1 (centres unmarked) [Example 171] | 0.44 nM | 0.42 nM |  | 
38 | CC(C)(C)[C@H](NC(=O)c1nn(Cc2ccc(C#N)cc2)c2ccccc12)C(=O)NCCO [Example 69] | 183 nM | 18.8 nM |  | 
39 | CC(C)(C)[C@H](NC(=O)c1nn(Cc2ccc(F)cc2)c2ccccc12)C(=O)N1CCC[C@H]1C(N)=O [Example 292] | 19 nM | 5.25 nM |  | 
40 | CC(C)(C)[C@H](NC(=O)c1nn(Cc2ccc(F)cc2)c2ccccc12)C(=O)NCc1cc(C2CC2)[nH]n1 [Example 422] |  |  | 19.6 nM | 4.67 nM
41 | CC(C)(C)[C@H](NC(=O)c1nn(Cc2ccc(F)cc2)c2ccccc12)C(=O)NCC(=O)NC[C@@H](O)CO [Example 523] |  |  | 2.8 nM | 5.22 nM
42 | Cc1noc(CNC(=O)C(NC(=O)c2nn(Cc3ccc(C#N)cc3)c3ccccc23)C(C)(C)C)n1 (centres unmarked) [Example 140] | 645 nM | 39.3 nM |  | 
43 | CC(C)(C)[C@H](NC(=O)c1nn(Cc2ccc(F)cc2)c2ccccc12)C(=O)NC1CCCOC1 (some centres unmarked) [Example 339] | 21.6 nM | 5.36 nM |  | 
44 | CC(C)(C)[C@H](NC(=O)c1nn(Cc2ccc(F)cc2)c2ccccc12)C(=O)N1CC(F)(F)C1 [Example 330] | 0.41 nM | 0.2 nM |  | 
45 | CC(C)(C)[C@H](NC(=O)c1nn(Cc2ccc(F)cc2)c2ccccc12)C(=O)NC1CCOC1 (some centres unmarked) [Example 281] | 37.4 nM | 4.83 nM |  | 
46 | CC(C)(C)C(NC(=O)c1nn(Cc2ccc(F)cc2)c2ccccc12)c1nnc(NC(=O)C2CC2)o1 (centres unmarked) [Example 78] |  |  | 2.88 nM | 0.59 nM
